Results reported in patent publication US5719132A, “Compositions and methods of treating HIV with d4T, 5-fluorouracil/tegafur, and uracil” (priority 1996, dated 1998).
Like-named read-outs stand apart in the source and are kept apart here.

Assays:
[1] = test system: PHA-PBMC; assay: cytotoxicity in PBMC by trypan blue exclusion
Description: (§1) Cells--Peripheral blood mononuclear cells (PBMC) from normal individuals were prepared by Ficoll-Hypaque gradient centrifugation of venous blood with citrate as an anticoagulant and stimulated with phytoagglutinin (PHA--P, 4 μg/ml, Sigma Chemical, St. Louis, Mo.) and interleukin-2 (IL-2, 1 ng/ml, Upstate Biotechnology Inc., Lake Placid, N.Y.) for three days.
(§2) To determine the cytotoxicity of 5-FU, uninfected PBMC were incubated with a series of concentrations of 5-FU (i.e., 0.04, 0.16, 0.63, 2.5 and 10 μM). To determine whether 5-FU can affect the cytotoxicity of d4T, uninfected PBMC were incubated with a series of concentrations of d4T (i.e., 0.8, 3.1, 12.5, 50 and 200 μM) containing 0.02 μM of 5-FU. This was repeated with d4T using 5-FU concentrations of 0.1 μM and 0.5 μM, respectively. Cell viability was monitored by trypan blue exclusion assay. Results were expressed as a percentage of living cells in drug testing wells compared to those in untreated control wells. The 50% cytotoxic concentration (CC50) was calculated as the concentration of drugs that decreased the percentage of living cells in drug-treated wells to 50% of those in untreated wells.

[2] = test system: clinical HIV-1 isolate JEW; assay: anti-HIV activity (p24 production) in PHA-stimulated PBMC, clinical isolate JEW; type: cell-based; settings: for EC50: Human immunodeficiency virus 1, PBMC, mean of three experiments; for Fold Enhancement (d4T anti-HIV activity): Table 1; for Fold Enhancement (ddI anti-HIV activity): Table 2
Description: .cndot."a" refers to the EC50 data as representing the mean values from three experiments, with duplicate determinations in each experiment.
Virus--A clinical HIV-1 isolate, JEW, was titrated with a infectivity assay [Johnson, V. A. and R. E. Byington. 1990. Infectivity assay, p. 71-76. in A. Aldovini and B. D. Walker (ed.), Techniques in HIV Research. Stockton Press, New York], and used in our experiments.
Chemicals--d4T was supplied by Bristol-Myers Squibb Company. 5-Fluorouracil(5-FU) was purchased from Sigma.
1. PBMC were infected by the clinical isolate JEW at a multiplicity of infection (MOI) of 0.001 at 37° C. for one hour, and then resuspended in RPMI 1640 medium (Gibco, Gaithersburg, Md.) containing 20% fetal bovine serum (FBS, Sigma), 1 ng/ml IL-2 and 2 mM L-glutamine (Gibco) at a concentration of 4×10^6 cells/ml.
2. d4T (2 μM) or ddI (40 μM) was serially diluted 1:3 into RPMI 1640 medium with a final volume of 100 μl/well in 96-well plates, and 50 μl of 2.0 μM, 0.8 μM and 0 μM 5-FU were then added to each well.
3. 50 μl of 4×10^6 / ml infected PBMC were added to each well in these plates to get a final 1×10^6 cells/ml, and incubated at 37° C.
4. Half media (100 μl) from each well were removed and replaced with fresh medium containing same concentrations of drug at day 3 or 4.
5. Samples were collected at day 7 and the p24 levels were quantitated using a HIV p24 ELISA kit (Dupont, Boston, Mass.).

[3] = in vivo; cited from earlier work
[4] = in vitro; settings: human, pha-stimulated pbmc
Description: as §1, §2

[5] = test system: thymidylate synthetase (TS); settings: cited from earlier work
[6] = test system: human immunodeficiency virus (HIV); settings: cited from earlier work
[7] = cited from earlier work
[8] = test system: HIV-1 reverse transcriptase; settings: in vitro; cited from earlier work
[9] = test system: HIV; settings: cited from earlier work
[10] = test system: clinical HIV isolate OLR; assay: anti-HIV activity in PBMC, clinical isolate OLR; type: cell-based; settings: with 0.1 μM 5-FU
Description: The 50% cytotoxicity concentration of 5-FU in PHA--PBMC is approximately 9 μM (i.e. micromolar) as determined by trypan blue staining.

[11] = clinical studies; cited from earlier work
[12] = test system: HIV; settings: 20 patients treated for up to 24 months; cited from earlier work
[13] = test system: HIV; settings: lowering of endogenous dATP; cited from earlier work
[14] = test system: degradation of 5-fluorouracil; settings: in vitro; cited from earlier work

O=c1[nH]cc(F)c(=O)[nH]1 [5-FU, 5-fluorouracil]
toxicity to PBMC ([1]; up to 0.5 μM): non-toxic
potentiating effect on d4T cytotoxicity ([1]; up to 0.5 μM 5-FU, PBMC): no potentiating effect
potentiating effect on the anti-HIV activity of ddI ([2]; up to 0.5 μM 5-FU, PBMC): no potentiating effect
antiviral activity alone ([2]; up to 0.5 μM, PHA-PBMC acutely infected by isolate JEW): no antiviral activity
half-life [3]: very short half-life
CC50 [4]: ~9000 nM
TS inhibition [5]: effective TS inhibitor

Nc1ccn([C@H]2C=C[C@@H](CO)O2)c(=O)n1 [d4C, 2',3'-dideoxycytidin-2'-ene]
antiviral activity against HIV [6]: demonstrated antiviral activity

Cc1cn([C@H]2C=C[C@@H](CO)O2)c(=O)[nH]c1=O [d4T, 2',3'-didehydro-3'-deoxythymidine]
dose-limiting toxicity ([7]; clinical studies): peripheral neuropathy
undesirable side effects ([7]; human, in vivo): peripheral neuropathy
EC50 ([2]; read-out: EC50 of d4T, PHA-stimulated PBMC, isolate JEW, 5-FU 0 μM): 98 ± 42 nM
EC50 ([2]; read-out: EC50 of d4T, PHA-stimulated PBMC, isolate JEW, with 5-FU 0.2 μM): 92 ± 39 nM
EC50 ([2]; read-out: EC50 of d4T, PHA-stimulated PBMC, isolate JEW, with 5-FU 0.5 μM): 27 ± 15 nM
fold enhancement of the anti-HIV activity of d4T ([2]; with 0.5 μM 5-FU, isolate JEW): ≤ 4 fold
Fold Enhancement (d4T anti-HIV activity) ([2]; with 5-FU 0.2 μM): 1 X
Fold Enhancement (d4T anti-HIV activity) ([2]; with 5-FU 0.5 μM): 4 X
inhibition of HIV-1 reverse transcriptase [8]: potent inhibitor
time until CD4 counts and serum p24 levels return to baseline ([9]; duration of anti-viral responses in patients): approximately 6 months
CD4 counts ([9]; treated patients): increases in CD4 counts
serum p24 levels and infectious HIV titers in PBMC ([9]; treated patients): decreases in both serum p24 levels and infectious HIV titers
fold enhancement of d4T activity [10]: 4.5 fold
antiviral activity against HIV [6]: demonstrated antiviral activity
oral bioavailability [11]: greater than 80%
resistant viruses isolated [12]: no resistant viruses can be isolated

Nc1ncnc2c1ncn2[C@H]1CC[C@@H](CO)O1 [ddA, 2',3'-dideoxyadenosine]
antiviral activity against HIV [6]: demonstrated antiviral activity

Nc1ccn([C@H]2CC[C@@H](CO)O2)c(=O)n1 [ddC, 2',3'-dideoxycytidine]
antiviral activity against HIV [6]: demonstrated antiviral activity

OC[C@@H]1CC[C@H](n2cnc3c(O)ncnc32)O1 [ddI, 2',3'-dideoxyinosine]
EC50 ([2]; PHA-stimulated PBMC, isolate JEW, 5-FU 0 μM, read-out: EC50 of ddI): 100 ± 32 nM
EC50 ([2]; PHA-stimulated PBMC, isolate JEW, with 5-FU 0.2 μM, read-out: EC50 of ddI): 170 ± 2 nM
Fold Enhancement (ddI anti-HIV activity) ([2]; with 5-FU 0.2 μM): 0.6 X
Fold Enhancement (ddI anti-HIV activity) ([2]; with 5-FU 0.5 μM): 0.7 X
antiviral activity against HIV [6]: demonstrated antiviral activity

NC(=O)NO [hydroxyurea]
effect of hydroxyurea on anti-HIV activity of ddI [13]: enhanced anti-HIV activity of ddI

O=c1cc[nH]c(=O)[nH]1 [uracil]
inhibition of degradation of 5-fluorouracil [14]: strongly inhibits the degradation of 5-fluorouracil
